Source: patent publication US10626126B2, “Compounds” (Pulmocide Limited, priority 2016, dated 2020)

Experiments:
RSV A2 = experiment: Virus titre in air-liquid interface (ALI) cultured bronchial epithelial cells; settings: for Virus titre in apical wash, geometric mean: late intervention (days 3-7), 0.1 mg/mL
Procedure: ALI cultured human bronchial epithelial cells were sourced from Epithelix Sarl (Geneva, Switzerland) and maintained by changing the basal media every 3-4 days, whilst the apical surface was washed once weekly with PBS. On day 0, the apical surface of each well was washed once with sterile PBS (300 μL) and the inserts transferred to new 24-well plates containing fresh MucilAir culture medium (780 μL; EP04MM). RSV A2 (50 μL; diluted in MucilAir culture medium to give a final MOI of 0.01) was added to cells for one hr (37° C./5% CO2). For the purposes of standardizing MOI calculations, each MucilAir insert was estimated to contain 2×10^5 apical facing cells per well. Virus inoculum was removed with a pipette and inserts were washed twice with sterile PBS (300 μL).
Sampling was conducted by adding sterile PBS (300 μL) to the apical surface of each well for 5 min. The apical sample was then removed and transferred to tubes containing 50% sucrose dissolved in PBS (100 μL) before being stored at −80° C. This harvesting procedure was repeated daily beginning on day 0 and concluding on day 10.
The test compound (50 μL in 0.5% DMSO/PBS) was added to the apical surface and incubated (37° C./5% CO2) for 1 hr before being removed. Vehicle treatments (0.5% DMSO/PBS) were performed on the corresponding apical surfaces to ensure each well received the same number of manipulations. On day 5, the basal media was removed from each well and replenished with fresh MucilAir culture media as a necessary maintenance step for ALI culture cells.
Virus titre was quantified by plaque assay. HEp2 cells were grown in 24-well plates (Corning) for 48 hr prior to infection in DMEM containing 10% FBS until they attained 100% confluency.
Collected samples were thawed at RT and ten-fold serial dilutions were prepared in serum-free DMEM. The growth medium from HEp2 cells was aspirated and replaced with 300 μL of serially diluted virus collections and left to infect at 37° C./5% CO2 for 4 hr. The infectious media was aspirated and replaced with 1 mL Plaque Assay Overlay (0.3% Avicel RC-591 (FMC Biopolymer UK, Girvan, Scotland)) in MEM, supplemented to a final concentration of 2% FCS), and left for 7 days at 37° C./5% CO2. Cells were fixed with ice-cold methanol for 10 min, then removed and cells subjected to two washes with sterile PBS. Cells were then stained with crystal violet solution (200 μL 0.1%, in distilled water) for 1 hr. Crystal violet solution was removed and cells rinsed with water before plaques were counted and virus titre enumerated.

RSV A2 strain = experiment: RSV A2 induced CPE in HEp2 cells; type: cell-based; settings: human respiratory syncytial virus; for IC50: HEp-2, 120 h, 5 days; for inhibition at 0.01 µg/mL: HEp-2, at 0.01 μg/mL
Procedure: (§1) HEp2 cells were seeded (10^3/well/50 μL) in 384-well plates (Catalogue number 353962, BD Falcon, Oxford, UK) in 5% FBS-DMEM (containing 2 mM L-glutamine and 1 mM sodium pyruvate) one day before infection. […] Simultaneously, test compounds (0.5 μL DMSO solution) were added to 100 μL of HEp2 cell culture with virus solution to provide a final DMSO solution of 0.5%. […] Sigma-Aldrich, Dorset, UK) was added to each well and the plate incubated for a further 6 hr (37° C./5% CO2). The fluorescence of each well [545 nm (excitation)/590 nm (emission)] was determined using a multi-scanner (Clariostar: BMG, Buckinghamshire, UK). The percentage inhibition for each well was calculated and the IC50, IC75 and IC90 values were calculated from the concentration-response curve generated for each test compound.

RSV B Washington strain = experiment: RSV B induced CPE in HEp2 cells; type: cell-based; settings: human respiratory syncytial virus; for IC50: HEp-2, 144 h, 6 days; for inhibition at 1 µg/mL: HEp-2, at 1 μg/mL; for inhibition at 0.1 µg/mL: HEp-2, at 0.1 μg/mL
Procedure: as §1

hRSV/A/Long = experiment: RSV infection in cotton rats: viral titre in lung (plaque assay)
Procedure: Male Sigmodon hispidus cotton rats between 6 and 8 weeks of age were infected with hRSV/A/Long (ATCC, Manassas, Va.; 10^5 pfu) in a volume of 0.1 mL of sucrose stabilizing media. Test compounds were dissolved in 100% DMSO (at 3.3, 10, 33 and 100 mg/mL), then diluted (1:10 in isotonic saline to achieve 10% DMSO in all treatments) and sonicated to produce suspensions which were administered intranasally (50 μL) by pipette 4 hr before infection (on day 0), and then on days 1, 2 and 3 post infection. Four days after RSV challenge, the animals were euthanised and the lungs removed.
The supernatants of lung homogenates were diluted 1:10 and 1:100 in Eagle (E)-MEM. Confluent HEp2 monolayers in 24-well plates were infected in duplicate (50 μL of sample per well) starting with undiluted (neat) samples followed by diluted homogenates. After incubation for 1 hr (37° C./5% CO2) wells were overlaid with 0.75% methylcellulose medium and plates replaced in the 37° C. incubator. After incubation (for 4 days), the overlay was removed, the cells fixed with 0.1% crystal violet stain (for 1 hr) and then rinsed and air-dried. Plaques were counted and viral titers were expressed as plaque forming units per gram (pfu.g^−1) of tissue.

[1] = Cell viability: resazurin assay; type: cell-based; settings: human, HEp2 cells
Procedure: HEp2 cells were seeded in 384-well plates (10^3/well/50 μL; BD Falcon Ref 353962) in FBS DMEM (5%, containing 2 mM L-glutamine and 1 mM sodium pyruvate) one day before experimentation. Serum-free DMEM (50 μL) was added to test wells, while for control wells the media was removed and sterile water (100 μL) added. Test compounds (0.5 μL DMSO solution) were added to give a final DMSO concentration of 0.5%. HEp2 cells were incubated with each test compound for 5 days (37° C./5% CO2 in 2.5% FBS) and then resazurin stock solution (5 μL; 0.03%) was added to each well and the plate incubated for a further 6 hr (37° C./5% CO2). The fluorescence of each well at 545 nm (excitation) and 590 nm (emission) was determined using a multi-scanner (Clariostar: BMG Labtech). The percentage loss of cell viability was calculated for each well relative to vehicle (0.5% DMSO) treatment. Note that any apparent increase in cell viability associated with test compound treatment relative to vehicle is consequently tabulated as a negative percentage. Where appropriate, a CC50 value was calculated from the concentration-response curve generated from the concentration-response curve for each test compound.

[2] = intranasal, 1.0 mg/mL, day 4 post infection

In the case of `Cc1cnc(N2CC3(CCOCC3)C2)c(C(=O)Nc2ccc(C(=O)N3CCc4cc(C(=O)Nc5c(F)cccc5Cl)sc4-c4sccc43)cc2)c1` [Example 12, N-(2-chloro-6-fluorophenyl)-4-(4-(5-methyl-2-(7-oxa-2-azaspiro[3.5]nonan-2-yl)nicotinamido)benzoyl)-5,6-dihydro-4H-dithieno[3,2-b:2′,3′-d]azepine-8-carboxamide], the “Virus titre in apical wash, geometric mean” value (shortened to “Virus titre in apical wash”) (RSV A2; day 0) is reported as 0 log PFU/mL, the “Virus titre in apical wash” value (RSV A2; day 1) is reported as 2.57 log PFU/mL and the “Virus titre in apical wash” value (RSV A2; day 2) is reported as 4.86 log PFU/mL. The “Virus titre in apical wash” value (RSV A2; day 3) was 5.27 log PFU/mL, the “Virus titre in apical wash” value (RSV A2; day 4) was 4.71 log PFU/mL and the “Virus titre in apical wash” value (RSV A2; day 5) was 3.45 log PFU/mL. For the same molecule, the “Virus titre in apical wash” value (RSV A2; day 6) was 2.62 log PFU/mL, the “Virus titre in apical wash” value (RSV A2; day 7) was 1.22 log PFU/mL and the “inhibition of virus titre in ALI culture (in words)” value (RSV A2; late stage intervention) was “completely inhibited virus titre”. For the same molecule, the IC50 (RSV A2 strain) was 0.14 nM, the inhibition at 0.01 µg/mL (RSV A2 strain) was 84% and the IC50 (RSV B Washington strain) was 3.1 nM. The inhibition at 1 µg/mL (RSV B Washington strain) was 97%, the “reduction of virus titre” value (hRSV/A/Long; intra-nasal dosing at 1 mg/ml) was 0.7 log and the “Virus titre in lung, Geometric Mean” value (hRSV/A/Long; [2]) was 4.5 log, PFU/lung. The “Virus titre in lung, Median” value (hRSV/A/Long; [2]) was 4.5 log, PFU/lung and the CC50 at 5 days [1] was greater than 13500 nM.

`Cc1cc(C(=O)Nc2ccc(C(=O)N3CCc4cc(C(=O)Nc5c(F)cccc5F)sc4-c4sccc43)cc2)c(N2CC3(CCOCC3)C2)nc1C` [Example 4, N-(2,6-Difluorophenyl)-4-(4-(5,6-dimethyl-2-(7-oxa-2-azaspiro[3.5]nonan-2-yl)nicotinamido)benzoyl)-5,6-dihydro-4H-dithieno[3,2-b:2′,3′-d]azepine-8-carboxamide] gave an IC50 (RSV A2 strain) of 0.28 nM, an inhibition at 0.01 µg/mL (RSV A2 strain) of 96% and an IC50 (RSV B Washington strain) of 18 nM. For the same molecule, the inhibition at 0.1 µg/mL (RSV B Washington strain) was 98% and the CC50 at 5 days [1] was greater than 13500 nM.

In the case of `COc1ccc(C(=O)Nc2ccc(C(=O)N3CCc4cc(C(=O)Nc5c(F)cccc5F)sc4-c4sccc43)cc2)c(N2CC3(CCOCC3)C2)n1` [Example 22, N-(2,6-difluorophenyl)-4-(4-(6-methoxy-2-(7-oxa-2-azaspiro[3.5]nonan-2-yl)nicotinamido)benzoyl)-5,6-dihydro-4H-dithieno[3,2-b:2′,3′-d]azepine-8-carboxamide], the IC50 (RSV A2 strain) is reported as 1.7 nM, the inhibition at 0.01 µg/mL (RSV A2 strain) is reported as 94% and the IC50 (RSV B Washington strain) is reported as 159 nM. It also gave an inhibition at 1 µg/mL (RSV B Washington strain) of 94% and a CC50 at 5 days [1] greater than 13500 nM.

In the case of `Cc1cnc(N2CC3(CCOCC3)C2)c(C(=O)Nc2ccc(C(=O)N3CCc4cc(C(=O)Nc5c(F)cccc5F)sc4-c4sccc43)c(F)c2)c1` [Example 18, N-(2,6-difluorophenyl)-4-(2-fluoro-4-(5-methyl-2-(7-oxa-2-azaspiro[3.5]nonan-2-yl)nicotinamido)benzoyl)-5,6 dihydro-4H-dithieno[3,2-b:2′,3′-d]azepine-8-carboxamide], the IC50 (RSV A2 strain) is reported as 0.17 nM, the inhibition at 0.01 µg/mL (RSV A2 strain) is reported as 100% and the IC50 (RSV B Washington strain) is reported as 14 nM. The inhibition at 0.1 µg/mL (RSV B Washington strain) was 92% and the CC50 at 5 days [1] was greater than 13400 nM.

In the case of `Cc1cnc(N2CCC3(CCOCC3)CC2)c(C(=O)Nc2ccc(C(=O)N3CCc4cc(C(=O)Nc5c(F)cccc5F)sc4-c4sccc43)cc2)c1` [Example 34, N-(2,6-difluorophenyl)-4-(4-(5-methyl-2-(3-oxa-9-azaspiro[5.5]undecan-9-yl)nicotinamido)benzoyl)-5,6-dihydro-4H-dithieno[3,2-b:2′,3′-d]azepine-8-carboxamide], the IC50 (RSV A2 strain) is reported as 4.4 nM, the inhibition at 0.01 µg/mL (RSV A2 strain) is reported as 100% and the IC50 (RSV B Washington strain) is reported as greater than 1330 nM. For the same molecule, the inhibition at 1 µg/mL (RSV B Washington strain) was 9% and the CC50 at 5 days [1] was greater than 13300 nM.

`Cc1ccc(C(=O)Nc2ccc(C(=O)N3CCc4cc(C(=O)Nc5c(F)cccc5F)sc4-c4sccc43)c(F)c2)c(N2CC3(CCOCC3)C2)n1` [Example 5, N-(2,6-Difluorophenyl)-4-(2-fluoro-4-(6-methyl-2-(7-oxa-2-azaspiro[3.5]nonan-2-yl)nicotinamido)benzoyl)-5,6-dihydro-4H-dithieno[3,2-b:2′,3′-d]azepine-8-carboxamide] showed an IC50 (RSV A2 strain) of 0.55 nM, an inhibition at 0.01 µg/mL (RSV A2 strain) of 89% and an IC50 (RSV B Washington strain) of 19 nM. For the same molecule, the inhibition at 0.1 µg/mL (RSV B Washington strain) was 97% and the CC50 at 5 days [1] was greater than 13400 nM.
